Assay results reported in patent US9017681B2, “Adenylyl cyclases as novel targets for antibactrial interventions” (Cornell Research Foundation, Inc., priority 2007, dated 2015).
Entries after “also recorded” stand apart in the source; their conditions may differ. Like-named read-outs stand apart in the source and are kept apart here.

Experiments:
[1] = target: T1, human sAC (Homo sapiens, UniProt Q96PN6); test: in vitro adenylyl cyclase assay with purified human sAC protein (cAMP by Correlate-EIA); format: biochemical; conditions: for inhibition at 100 µM: 100 μM of compound
T1 construct: made in house
T1 sequence (Q96PN6 1-469 limits assumed): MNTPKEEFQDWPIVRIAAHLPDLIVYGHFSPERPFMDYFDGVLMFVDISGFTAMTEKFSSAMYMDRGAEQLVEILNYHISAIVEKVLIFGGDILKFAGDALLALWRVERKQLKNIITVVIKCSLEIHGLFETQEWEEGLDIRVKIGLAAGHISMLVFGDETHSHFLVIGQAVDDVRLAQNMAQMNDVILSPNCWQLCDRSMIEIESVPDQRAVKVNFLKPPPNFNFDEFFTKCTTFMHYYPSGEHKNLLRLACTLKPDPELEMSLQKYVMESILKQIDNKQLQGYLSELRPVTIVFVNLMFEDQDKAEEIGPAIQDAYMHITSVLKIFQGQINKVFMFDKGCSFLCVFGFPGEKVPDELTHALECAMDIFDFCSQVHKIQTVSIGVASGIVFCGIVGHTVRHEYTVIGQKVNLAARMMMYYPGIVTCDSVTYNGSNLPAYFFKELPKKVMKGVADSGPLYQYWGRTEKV
Procedure: Purified human sAC protein was used in an in vitro adenylyl cyclase assay. Purification of the protein is described in detail in Litvin et al. 2003. (J. Biol. Chem. 278:15922-15926). This paper also describes the general conditions for a sAC cyclase assay. The specific conditions for the in vitro assay are as follows.
For basal sAC activity, an assay master mixture with sufficient volume for all reactions was prepared containing:
100 U/ml creatine phosphokinase (CPK)
An aliquot of the master mixture was added to the purified human sAC. The assay mixture also included the indicated concentration of KH compound, or an equivalent volume of vehicle (i.e., DMSO) as control. The reaction was started by adding 5 mM ATP (total assay volume=100 μL). The reaction mixture was incubated at 30° C. for 30 minutes and then stopped by adding 100 μl […]. Stimulated assay conditions involve adding 40 mM bicarbonate and 5 mM CaCl2 to the above master mixture.
(§1) Cyclic AMP levels were measured in each sample using the Correlate-EIA Direct Cyclic AMP assay kit from Assay Designs as per manufacturers instructions.

[2] = target: T1, human sAC; test: cellular cAMP accumulation assay in 4-4 cells (hsACt stably transfected into 293T), IBMX; format: cell-based; conditions: for IC50: stable cell line overexpressing human sAC, 500 μM IBMX, read-out: 4-4, Basal approximate IC50 (or the dose range where the IC50 should lie)
Procedure: 293T cells or 4-4 […] stably transfected into 293T) were grown in 75 cm2 Tissue Culture Flasks until nearly confluent using DMEM (10% FBS, 1% L-Glutamine, 1% Penicillin/Streptomycin). Cells were released from the flask with 3 ml of trypsin followed by addition of 7 ml of DMEM to neutralize the trypsin. Cells were mixed by pipetting up and down with 10 ml serological pipette. To a 3 ml aliquot of the cell mixture, 6 ml of DMEM (prewarmed to 37° C.) was added followed by thorough mixing by picking up the entire 9 mls using a repeat pipettor, and slowly pipetting out against the wall of container. This was repeated this ten times to ensure the mixture in homogenous. 100 μL of cells were then added to each pre-siliconized 1.7 ml Eppindorf tubes (Costar #3207) followed by a 60 min incubation at 37° C. and 5% CO2. This incubation was performed in 20-tube, round, floating racks (VWR #60986-100), which enable a quick transfer of the samples to a water bath, and the ability to mix several samples simultaneously. Following the incubation, 1 μL of the compound in DMSO was added (or just DMSO for controls). The cells were mixed before and after adding the compound, by a brief (and light) vortexing. The compounds were added while the cells were in the 37° C. water bath, followed by a 10 min incubation at 37° C. and 5% CO2. Following this incubation, 1 μL it of IBMX or 1 μL of IBMX+Forskolin was added with Repeat Pipettor. The 4-4 cells receive the IBMX to a final concentration of 500 μM IBMX. […] Both the IBMX mix (for 4-4 cells), and the IBMX/FSK mix (for 293T cells) were 100×, and were dissolved in DMSO. Cells were mixed and incubated at 37° C. and 5% CO2 for 15 min. The assay was stopped by placing the cells in an ice bath. Cells were pelleted by centrifugation at 2000×G for 7 min at 4° C. The supernatant was aspirated and 250 μL of 0.1 N HCl was added to each cell pellet followed by through vortexing for 1 min. Following a 10 min incubation at room temperature, 30 μL of each sample was added to 70 μL of 0.1 N HCl and the cAMP levels were measured using the protocol for the Direct Cyclic AMP Kit (Assay Designs, Inc. #901-066). This 30 μL plus 70 μL of 0.1 N HCl makes up the sample described in step 5 of the Assay Designs' protocol. The samples should lie in the linear range of the assay.

[3] = test system: endogenous transmembrane adenylyl cyclases; test: cellular cAMP accumulation assay in 293T cells + IBMX + forskolin; format: cell-based, human; conditions: for IC50: 293T cells, 500 μM IBMX and 10 μM forskolin, endogenous tmAC activity, read-out: 293T + FSK
Procedure: 293T cells or 4-4 cells (hsACt stably transfected into 293T) were grown in 75 cm2 Tissue Culture Flasks until nearly confluent using DMEM (10% FBS, 1% L-Glutamine, 1% Penicillin/Streptomycin). Cells were released from the flask with 3 ml of trypsin followed by addition of 7 ml of DMEM to neutralize the trypsin. Cells were mixed by pipetting up and down with 10 ml serological pipette. To a 3 ml aliquot of the cell mixture, 6 ml of DMEM (prewarmed to 37° C.) was added followed by thorough mixing by picking up the entire 9 mls using a repeat pipettor, and slowly pipetting out against the wall of container. This was repeated this ten times to ensure the mixture in homogenous. 100 μL of cells were then added to each pre-siliconized 1.7 ml Eppindorf tubes (Costar #3207) followed by a 60 min incubation at 37° C. and 5% CO2. This incubation was performed in 20-tube, round, floating racks (VWR #60986-100), which enable a quick transfer of the samples to a water bath, and the ability to mix several samples simultaneously. Following the incubation, 1 μL of the compound in DMSO was added (or just DMSO for controls). The cells were mixed before and after adding the compound, by a brief (and light) vortexing. The compounds were added while the cells were in the 37° C. water bath, followed by a 10 min incubation at 37° C. and 5% CO2. Following this incubation, 1 μL it of IBMX or 1 μL of IBMX+Forskolin was added with Repeat Pipettor. The 4-4 cells receive the IBMX to a final concentration of 500 μM IBMX. The 293T cells receive IBMX and Forskolin to final concentration of 500 μM IBMX and 10 μM, respectively. Both the IBMX mix (for 4-4 cells), and the IBMX/FSK mix (for 293T cells) were 100×, and were dissolved in DMSO. Cells were mixed and incubated at 37° C. and 5% CO2 for 15 min. The assay was stopped by placing the cells in an ice bath. Cells were pelleted by centrifugation at 2000×G for 7 min at 4° C. The supernatant was aspirated and 250 μL of 0.1 N HCl was added to each cell pellet followed by through vortexing for 1 min. Following a 10 min incubation at room temperature, 30 μL of each sample was added to 70 μL of 0.1 N HCl and the cAMP levels were measured using the protocol for the Direct Cyclic AMP Kit (Assay Designs, Inc. #901-066). This 30 μL plus 70 μL of 0.1 N HCl makes up the sample described in step 5 of the Assay Designs' protocol. The samples should lie in the linear range of the assay.

[4] = test system: P. aeruginosa CyaB (a Class III adenylyl cyclase); test: Pseudomonas adenylyl cyclase assay with purified His-CyaB; format: biochemical, Pseudomonas aeruginosa; conditions: increasing concentrations of compound, FIG. 1 / FIG. 2
Procedure: (§2) FIG. 1. […] The CyaB was heterologously expressed in E. coli as a poly-histidine tagged fusion protein and purified using a nickel column. Adenylyl cyclase activity was determined by measuring cyclic AMP levels using the Correlate-EIA Direct Cyclic AMP assay kit from Assay Designs as per manufacturers instructions.
as §2, with “2.” for “1.”
P. aeruginosa CyaB (a Class III adenylyl cyclase) was heterologously expressed in E. coli as a HIS-tagged, fusion protein. Expression of the fusion protein was induced by Isopropyl β-D-1-thiogalactopyranoside (IPTG) t at 21° C. (empirically found to be best temperature for expression). The His-CyaB fusion protein was purified using a nickel affinity column according to standard protocols in the absence of any reducing agent. Eluted protein was dialyzed into storage buffer consisting of: 50 mM Tris (pH 8.5), 10 mM NaCl, 2 mM MgCl2, and 25% glycerol.
The purified CyaB was assayed for cyclase activity as follows. […]
as §1

[5] = BASAL human sAC in vitro activity, read-out: % Inhibition (100 μM), hsACt-Basal
[6] = stimulated human sAC in vitro activity, read-out: % Inhibition (100 μM), hsACt-Stim.
[7] = BASAL activity of human sAC in vitro (just Mg-ATP, no calcium or bicarbonate), read-out: hsACt-Basal approximate IC50 (or the dose range where the IC50 should lie)
[8] = stimulated activity of human sAC in vitro (calcium and bicarbonate stimulated), read-out: hsACt-Stim. approximate IC50 (or the dose range where the IC50 should lie)

Row | inhibition at 100 µM [1, 5] | inhibition at 100 µM [1, 6] | IC50 [1, 7] | IC50 [1, 8] | IC50 [2] | IC50 [3] | Compound | cellular toxicity remark, 4-4 Basal ([2]; 4-4 cells) | cellular toxicity remark, 293T + FSK ([3]; 293T cells + FSK) | effect on CyaB adenylyl cyclase activity [4]
1 | 50% | 50% | 10 to 100 µM | 10 to 100 µM | 30 µM | > 120 µM | CC(Sc1nc2ccccc2[nH]1)C(=O)N/N=C/c1ccc([N+](=O)[O-])cc1 (centres unmarked) [KH7.101] | – | – | –
2 | 0% | 0% | > 100 µM | > 100 µM | 100 µM | > 500 µM | O=C(CSc1nc2ccccc2[nH]1)NCCc1ccccc1 [KH7.102] | – | – | –
3 | 100% | 100% | 10 to 100 µM | 10 to 100 µM | 60 to 120 µM | > 120 µM | O=C(CSc1nc2ccccc2[nH]1)N/N=C/c1cc(Br)ccc1O [KH7.103] | – | – | –
4 | 70% | 85% | 10 to 100 µM | 10 to 100 µM | 15 µM | 60 to 120 µM | O=C(CSc1nc2ccccc2[nH]1)N/N=C/c1cccc(Br)c1 [KH7.104] | – | – | –
5 | 90% | 90% | 10 to 100 µM | 10 to 100 µM | 15 µM | 60 µM | O=C(CSc1nc2ccccc2[nH]1)N/N=C/c1ccc(Cl)cc1Cl [KH7.105] | – | – | –
6 | – | – | – | – | – | > 500 µM | COc1ccc(/C(C)=N\NC(=O)CSc2nc3ccccc3[nH]2)cc1 [KH7.106] | – | – | –
7 | 95% | 95% | 10 to 100 µM | 10 to 100 µM | 60 to 120 µM | > 120 µM | C/C(=N\NC(=O)CSc1nc2ccccc2[nH]1)c1ccc(Br)cc1 [KH7.107] | – | – | –
8 | 0% | 0% | > 100 µM | > 100 µM | 30 to 60 µM | 60 to 120 µM | C/C(=N\NC(=O)CSc1nc2ccccc2[nH]1)c1ccccc1 [KH7.108] | may be cellular toxicity | may be cellular toxicity | –
9 | 0% | 0% | > 100 µM | > 100 µM | ~120 µM | > 120 µM | C/C(=N\NC(=O)CSc1nc2ccccc2[nH]1)c1ccco1 [KH7.109] | – | – | –
10 | 90% | 90% | 10 to 100 µM | 10 to 100 µM | 30 to 60 µM | > 120 µM | C/C(=N\NC(=O)CSc1nc2ccccc2[nH]1)c1ccc(Cl)cc1 [KH7.110] | – | – | –
11 | 70% | 70% | 10 to 100 µM | 10 to 100 µM | 3 to 30 µM | 120 µM | CCCOc1ccc(/C=N/NC(=O)CSc2nc3ccccc3[nH]2)cc1 [KH7.111] | – | – | –
12 | 0% | 0% | > 100 µM | > 100 µM | 56 to 167 µM | > 500 µM | COc1cc(/C(C)=N\NC(=O)CSc2nc3ccccc3[nH]2)ccc1O [KH7.114] | – | – | –
13 | 0% | 0% | > 100 µM | > 100 µM | 167 to 500 µM | > 500 µM | C/C(=N/NC(=O)CSc1nc2ccccc2[nH]1)c1ccncc1 [KH7.117] | – | – | –

Row | Compound | inhibition at 100 µM [1, 5] | inhibition at 100 µM [1, 6] | IC50 [1, 7] | IC50 [1, 8] | IC50 [2] | IC50 [3] | cellular toxicity remark, 4-4 Basal ([2]; 4-4 cells) | cellular toxicity remark, 293T + FSK ([3]; 293T cells + FSK) | effect on CyaB adenylyl cyclase activity [4]
14 | COc1ccc(C2=NN(C(=O)CSc3nc4ccccc4[nH]3)C(c3ccc(F)cc3)C2)cc1 (centres unmarked) [KH7.120] | 90% | 90% | 10 to 100 µM | 10 to 100 µM | – | – | – | – | activator; also recorded: increase in the activity
